PMC11162475, “Rule-based omics mining reveals antimicrobial macrocyclic peptides against drug-resistant clinical isolates” (Nature Communications, 2024)
≈ marks a conversion by molar mass, not a printed value.

Legend:
[1] = tested on: Micrococcus luteus DSM1790; experiment: Kirby-Bauer assay, zone of inhibition (agar well); type: cell-based; details: M. luteus DSM1790; 10 μL DMSO stock (3.2 or 1.6 mg/mL) in well of soft LB agar, 30 °C, 20 h
Procedure: The stock solution of massatide A (1) and B (1a) 3.2 mg/mL were prepared in DMSO. 40 μL overnight culture of Micrococcus luteus DSM1790 was added to 20 mL soft Luria-Bertani agar (1% agar), and then poured into a plate. 10 μL tip was used to make two wells on the plate. 10 μL massatide A (1) or B (1a) solution was added in one of the wells, while in the other well, 10 μL DMSO was added as a negative control. The plates were incubated at 30 °C for 20 h to observe the zone of inhibition. Staphylococcus aureus ATCC25923 was also used to observe the inhibition zone using a similar method. The only difference is incubating at 37 °C. Stock solutions of sistertide A1, kebanetide A1 and A2 were 3.2 mg/mL, 1.6 mg/mL and 1.6 mg/mL, respectively. The method to observe the activity of these compounds individually was the same as that of massatide.

[2] = tested on: Pseudomonas aeruginosa PAO1; type: cell-based; details: PAO1, 20 h
Procedure: (§1) For MIC determination, Staphylococcus aureus ATCC25923, Bacillus subtilis 168, Micrococcus luteus DSM1790, Enterococcus faecalis OG1RF, Enterococcus faecium MCC2763, Escherichia coli DH5α and Pseudomonas aeruginosa PAO1 were used as indicator strains. Nisin and vancomycin were used as positive controls. A dilution series of massatide A, massatide B, vancomycin (16, 8, 4, 2, 1, 0.5, 0.25, 0.125, 0.0625, 0.0313 μg/mL) and sistertide A1, kebanetide A1, kebanetide A2, nisin (64, 32, 16, 8, 4, 2, 1, 0.5, 0.25, 0.125 μg/mL) were prepared in 96-well plate from 1–10th column. The indicator strains were added to the compound-containing well. The indicator strain culture with no antibiotics was prepared in the 11th column. The 12th column was filled with 200 μL empty MHB medium. The 96-well plate was incubated at 37 °C for 20 h (30 °C for M. luteus and B. subtilis). The OD600 was detected on MULTISKAN Sky (Thermo Scientific) and MIC values were determined. The MIC values of clinical isolates were determined by Sichuan Primed Shines Bio-tech Co., Ltd. (China) following similar protocol. Levofloxacin was used as a positive control.

[3] = tested on: Escherichia coli DH5α; type: cell-based; details: DH5α, 20 h
Procedure: as §1

[4] = tested on: Staphylococcus aureus ATCC25923; experiment: microbe, parasite or virus in culture; type: cell-based; details: ATCC25923, 20 h
Procedure: as §1

[5] = tested on: Enterococcus faecalis OG1RF; experiment: microbe, parasite or virus in culture; type: cell-based; details: OG1RF, 20 h
Procedure: as §1

[6] = tested on: Micrococcus luteus DSM1790; experiment: microbe, parasite or virus in culture; type: cell-based; details: DSM1790, 20 h
Procedure: as §1

[7] = tested on: Bacillus subtilis 168; experiment: microbe, parasite or virus in culture; type: cell-based
Procedure: as §1

[8] = tested on: Enterococcus faecium MCC2763; experiment: microbe, parasite or virus in culture; type: cell-based; details: MCC2763, 20 h
Procedure: as §1

[9] = tested on: S. aureus ATCC 25923; details: 25 days of serial passaging, control antibiotic
Procedure: was used as a negative control.
Experiments were performed in triplicate.
The experiment was performed in triplicate.

[10] = tested on: S. aureus ATCC 25923; experiment: Lysis of S. aureus culture; type: cell-based, Staphylococcus aureus; details: S. aureus ATCC 25923 culture OD600 1.0, 10×MIC, 24 h
Procedure: Growth kinetics of S. aureus
Massatide A or B was prepared in a 96-well plate at the concentration of 8×MIC, 4×MIC, 2×MIC, 1×MIC and 0.5×MIC , respectively. The MHB medium with no compound was used as a control. Then, the overnight culture of S. aureus ATCC 25923 cells was added to the medium at 1:1,000. The plate was incubated with shaking in SpectraMax iD3 (MOLECULAR DEVICES) at 30 ℃. OD600 was measured every 30 min for 36 hours. To analyze the lysis, 1mL of S. aureus ATCC 25923 culture (OD600 1.0) was treated with massatide A or vancomycin (10×MIC) for 24h. An untreated sample was used as a negative control. […]
(§2) Experiments were performed in triplicate. […]

[11] = tested on: S. aureus ATCC 25923; experiment: Time-dependent killing assay; type: cell-based, Staphylococcus aureus; details: time-killing assay
Procedure: Time-dependent killing assay
An overnight culture of S. aureus ATCC 25923 cells was diluted at 1:10,000 in MHB medium and incubated at 37 ℃, 200 rpm for 2 hours to reach the early exponential.
Then, massatide A or vancomycin was added to the culture at the concentration of 10×MIC. Bacteria were still cultivated at 37 ℃, 200 rpm. Culture with no antibiotics was used as a negative control. 10 μL aliquots were removed at intervals, centrifuged, and resuspended in 1 ml PBS. Serially diluted (10-fold) suspensions were plated on MHB agar and incubated at 37 ℃ overnight for counting of colony-forming units.
as §2

Compound: C=C1NC(=O)C(NC(=O)/C(=C/C)NC(=O)[C@H](CCCNC(=N)N)NC(=O)[C@@H](C)NC(=O)[C@@H](NC(=O)[C@H](C)NC(=O)[C@@H](NC(=O)[C@@H](C)NC(=O)[C@H](C)NC(=O)[C@@H]2CSC(C)C(N(C)C)C(=O)N/C(=C\C)C(=O)N[C@@H](Cc3ccc(O)cc3)C(=O)N[C@@H]([C@@H](C)CC)C(=O)N2)C(C)C)[C@@H](C)CC)CSC[C@@H](C(=O)N[C@H](C)C(=O)N[C@@H](C)C(=O)N[C@@H](C)C(=O)N[C@@H](C)C(=O)N[C@H](C)C(=O)N[C@@H](C)C(=O)N[C@H](C(=O)N[C@H](C)C(=O)NCC(=O)N[C@@H](C)C(=O)NC2C(=O)N[C@@H](Cc3ccc(O)cc3)C(=O)N[C@@H](CCC(=O)O)C(=O)N[C@@H](Cc3c[nH]c4ccccc34)C(=O)N[C@@H]([C@@H](C)O)C(=O)N/C=C\SC2C)[C@@H](C)CC)NC(=O)[C@H](CCCCN)NC(=O)[C@H](C(C)C)NC1=O (stereo partly shown) [Sistertide A1 (2), sistertide A1]
- inhibitory activity (zone of inhibition) [1]: did not display significant inhibitory activity
- MIC [2]: >64 µg/mL
- MIC [3]: >64 µg/mL
- MIC [4]: >64 µg/mL
- MIC [5]: >64 µg/mL
- MIC [6]: >64 µg/mL
- MIC ([7]; 168, 20 h): >64 µg/mL
- MIC [8]: >64 µg/mL

Compound: CN[C@H](CC(C)C)C(=O)N[C@H]1C(=O)N[C@@H](CC(N)=O)C(=O)N[C@H]2C(=O)N[C@H]3C(=O)N[C@H](C(=O)N[C@H](C(=O)O)c4cc(O)cc(O)c4-c4cc3ccc4O)[C@H](O)c3ccc(c(Cl)c3)Oc3cc2cc(c3O[C@@H]2O[C@H](CO)[C@@H](O)[C@H](O)[C@H]2O[C@H]2C[C@](C)(N)[C@H](O)[C@H](C)O2)Oc2ccc(cc2Cl)[C@H]1O [Vancomycin, reference compound]
- shift of MIC during serial passaging [9]: absence of a shift
- lysis of the cell culture [10]: the same as vancomycin
- log(CFU/mL) ([11]; time 0 h, log of mean of 3 replicates): 6.907 log(CFU/mL)
- CFU/mL ([11]; time 0 h, mean of 3 replicates): 8080000 CFU/mL
- CFU/mL ([11]; time 0 h, replicate 1): 8440000 CFU/mL
- log(CFU/mL) ([11]; time 0 h, replicate 1): 6.926 log(CFU/mL)
- CFU/mL ([11]; time 0 h, replicate 2): 8020000 CFU/mL
- log(CFU/mL) ([11]; time 0 h, replicate 2): 6.904 log(CFU/mL)
- CFU/mL ([11]; time 0 h, replicate 3): 7780000 CFU/mL
- log(CFU/mL) ([11]; time 0 h, replicate 3): 6.891 log(CFU/mL)
- log(CFU/mL) ([11]; time 1 h, log of mean of 3 replicates): 6.695 log(CFU/mL)
- CFU/mL ([11]; time 1 h, mean of 3 replicates): 4950000 CFU/mL
- CFU/mL ([11]; time 1 h, replicate 1): 5360000 CFU/mL
- log(CFU/mL) ([11]; time 1 h, replicate 1): 6.729 log(CFU/mL)
- CFU/mL ([11]; time 1 h, replicate 2): 5200000 CFU/mL
- log(CFU/mL) ([11]; time 1 h, replicate 2): 6.716 log(CFU/mL)
- CFU/mL ([11]; time 1 h, replicate 3): 4290000 CFU/mL
- log(CFU/mL) ([11]; time 1 h, replicate 3): 6.632 log(CFU/mL)
- log(CFU/mL) ([11]; time 3 h, log of mean of 3 replicates): 6.685 log(CFU/mL)
- CFU/mL ([11]; time 3 h, mean of 3 replicates): 4836667 CFU/mL
- CFU/mL ([11]; time 3 h, replicate 1): 4940000 CFU/mL
- log(CFU/mL) ([11]; time 3 h, replicate 1): 6.694 log(CFU/mL)
- CFU/mL ([11]; time 3 h, replicate 2): 4850000 CFU/mL
- log(CFU/mL) ([11]; time 3 h, replicate 2): 6.686 log(CFU/mL)
- CFU/mL ([11]; time 3 h, replicate 3): 4720000 CFU/mL
- log(CFU/mL) ([11]; time 3 h, replicate 3): 6.674 log(CFU/mL)
- log(CFU/mL) ([11]; time 7 h, log of mean of 3 replicates): 5.899 log(CFU/mL)
- CFU/mL ([11]; time 7 h, mean of 3 replicates): 791667 CFU/mL
- CFU/mL ([11]; time 7 h, replicate 1): 695000 CFU/mL
- log(CFU/mL) ([11]; time 7 h, replicate 1): 5.842 log(CFU/mL)
- CFU/mL ([11]; time 7 h, replicate 2): 770000 CFU/mL
- log(CFU/mL) ([11]; time 7 h, replicate 2): 5.886 log(CFU/mL)
- CFU/mL ([11]; time 7 h, replicate 3): 910000 CFU/mL
- log(CFU/mL) ([11]; time 7 h, replicate 3): 5.959 log(CFU/mL)
- log(CFU/mL) ([11]; time 26 h, log of mean of 3 replicates): 3.724 log(CFU/mL)
- CFU/mL ([11]; time 26 h, mean of 3 replicates): 5300 CFU/mL
- CFU/mL ([11]; time 26 h, replicate 1): 5500 CFU/mL
- log(CFU/mL) ([11]; time 26 h, replicate 1): 3.74 log(CFU/mL)
- CFU/mL ([11]; time 26 h, replicate 2): 5400 CFU/mL
- log(CFU/mL) ([11]; time 26 h, replicate 2): 3.732 log(CFU/mL)
- CFU/mL ([11]; time 26 h, replicate 3): 5000 CFU/mL
- log(CFU/mL) ([11]; time 26 h, replicate 3): 3.699 log(CFU/mL)
- MIC ([4]; Staphylococcus aureus): 1 µg/mL (≈ 0.69 µM)
- MIC ([5]; Enterococcus faecalis): 2 µg/mL (≈ 1.38 µM)
- MIC ([6]; Micrococcus luteus): 0.125 µg/mL (≈ 0.0863 µM)
- MIC ([7]; Bacillus subtilis, 168, 20 h): 0.125 µg/mL (≈ 0.0863 µM)
- MIC ([8]; Enterococcus faecium): 1 µg/mL (≈ 0.69 µM)
